Results published in PubChem BioAssay AID602235 (The Scripps Research Institute Molecular Screening Center, 2012).
Active and inactive are the calls of the source. How the calls were made is not given here.

target: Nuclear receptor coactivator 1 (Homo sapiens) (UniProt Q15788); assay: inhibition of NCOA1 transcriptional coactivation in cells – cell-based, luciferase reporter, luminescence, dose response (AID 602235); settings: cell-based SRC1 luciferase reporter;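 further: cells transfected with pGL4.31 reporter plus pBIND-SRC1 vector; potency is for inhibitors that lower SRC1 reporter luminescence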
Sequence (Q15788 whole entry, looked up): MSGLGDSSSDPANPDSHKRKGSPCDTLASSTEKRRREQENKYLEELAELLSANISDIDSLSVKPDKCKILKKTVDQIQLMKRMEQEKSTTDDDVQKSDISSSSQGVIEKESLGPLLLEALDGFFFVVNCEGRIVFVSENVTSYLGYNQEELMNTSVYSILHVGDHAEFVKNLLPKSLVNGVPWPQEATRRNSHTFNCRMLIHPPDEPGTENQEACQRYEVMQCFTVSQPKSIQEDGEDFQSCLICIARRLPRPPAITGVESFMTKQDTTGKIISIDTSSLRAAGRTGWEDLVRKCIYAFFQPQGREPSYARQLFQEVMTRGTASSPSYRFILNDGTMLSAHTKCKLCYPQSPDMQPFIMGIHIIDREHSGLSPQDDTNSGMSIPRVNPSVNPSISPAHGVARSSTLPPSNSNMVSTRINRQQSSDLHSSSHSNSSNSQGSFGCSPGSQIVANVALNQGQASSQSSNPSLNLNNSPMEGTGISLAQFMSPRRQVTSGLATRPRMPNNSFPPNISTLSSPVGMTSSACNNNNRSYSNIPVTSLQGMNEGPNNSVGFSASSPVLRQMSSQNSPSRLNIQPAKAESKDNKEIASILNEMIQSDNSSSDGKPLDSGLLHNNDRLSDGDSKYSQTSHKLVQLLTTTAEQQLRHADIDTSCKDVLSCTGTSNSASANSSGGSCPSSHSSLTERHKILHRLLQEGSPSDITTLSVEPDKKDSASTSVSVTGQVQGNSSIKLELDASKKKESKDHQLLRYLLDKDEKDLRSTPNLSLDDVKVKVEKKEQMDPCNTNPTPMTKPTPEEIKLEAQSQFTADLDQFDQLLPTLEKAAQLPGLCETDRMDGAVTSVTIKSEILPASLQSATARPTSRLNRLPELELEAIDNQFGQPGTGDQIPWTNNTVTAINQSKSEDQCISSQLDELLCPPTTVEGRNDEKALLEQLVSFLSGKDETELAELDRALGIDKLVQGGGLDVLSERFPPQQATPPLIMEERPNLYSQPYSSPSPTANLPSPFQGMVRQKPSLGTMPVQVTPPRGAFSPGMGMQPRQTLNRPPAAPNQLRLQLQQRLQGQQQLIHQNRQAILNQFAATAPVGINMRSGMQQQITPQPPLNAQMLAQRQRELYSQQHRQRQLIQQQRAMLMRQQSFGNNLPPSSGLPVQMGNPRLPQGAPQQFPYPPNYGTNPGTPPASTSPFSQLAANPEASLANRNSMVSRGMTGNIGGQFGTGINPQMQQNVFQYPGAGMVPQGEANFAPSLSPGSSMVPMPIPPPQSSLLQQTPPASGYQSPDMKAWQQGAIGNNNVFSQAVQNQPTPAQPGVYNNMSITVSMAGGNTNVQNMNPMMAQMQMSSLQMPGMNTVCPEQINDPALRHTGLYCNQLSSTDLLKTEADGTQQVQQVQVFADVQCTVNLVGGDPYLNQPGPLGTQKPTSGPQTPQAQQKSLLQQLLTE

| Structure (SMILES) | IC50 |
| --- | --- |
| COC(=O)c1sc2cnccc2c1N | inactive |
| COc1ccc(/C=C2/SC(=S)N(CCC(=O)O)C2=O)cc1 | > 35.9 µM (inactive) |
| O=C(CCl)N1N=C(c2cccs2)CC1c1ccco1 (centres undefined) | > 35.9 µM (inactive) |
| Cc1cccc(C)c1-n1nnnc1C(c1cccs1)N1CCC2(CC1)C(=O)NCN2c1ccccc1 (centres undefined) | inactive |
| Cc1ccc2nc(C(F)(F)F)c(C#N)c(N)c2c1 | inactive |
| C=CCNc1ncnc2ccc(Br)cc12 | 6.79 µM |
| CCCCCCCC[n+]1c(C)n(-c2ccccc2)c2ccc(NC(C)=O)cc21 | > 35.9 µM (inactive) |
| O=C(Nc1nc(-c2ccccn2)cs1)c1cccc(-n2cnnn2)c1 | inactive |
| CCOc1cccc(/C=N/NC(=O)c2cccnc2)c1O | > 12 µM (inactive) |
| CC1CC(C)C(=NNC(N)=O)C(C(O)CC2CCC(=O)NC2=O)C1 (centres undefined) | 8.57 µM |
| COc1ccccc1/C=C\C(=O)NCC(=O)N/N=C/c1cccc(OC)c1O | inactive |
| COc1ccc(Cc2nnc(SCc3ccc([N+](=O)[O-])cc3)o2)cc1 | inactive |
| Nc1ncccc1C(=O)OCC(=O)N1CCN(S(=O)(=O)c2ccc(Cl)cc2)CC1 | inactive |
| CCn1c(Oc2ccc(F)cc2)nc2c1c(=O)n(C)c(=O)n2C | > 12 µM (inactive) |
| Cc1sc2ncnc(N3CCC(C(=O)N(C)CC(=O)Nc4cccc(F)c4)CC3)c2c1C | > 12 µM (inactive) |
| CN(c1ccc(C(=O)N2CCN(Cc3ccc4c(c3)OCO4)CC2)cc1)S(=O)(=O)c1ccccc1 | > 35.9 µM (inactive) |
| Cc1ccc(N=c2c([N+](=O)[O-])nn(-c3ccc4c(c3)OCCO4)n2O)cc1F | inactive |
| O=C(NC1CCCCC1)C(c1cccnc1)N(C(=O)CCl)c1cccc(Cl)c1 (centres undefined) | 6.91 µM |
| O=C(Nc1cccc(C(F)(F)F)c1)Nc1nnc([C@@H]2C[C@H](O)[C@@H](CO)O2)s1 | 9.55 µM |
| CC(C)(C)OC(=O)NCC(=O)Oc1cc2oc(=O)cc(-c3ccccc3)c2cc1Cl | inactive |
| COc1ccc2ncn(-c3ccccc3)c2c1 | 8.16 µM |
| Cc1ccc(O)c(C(=O)c2cnn(C(=O)COc3ccc(Cl)cc3)c2)c1 | inactive |
| Cc1nc(N2CCC(C(N)=O)CC2)c2c(-c3cccs3)csc2n1 | 8.59 µM |
| c1ccc(-c2nnc(-c3ccccn3)nc2NC2CCCCC2)cc1 | 5.22 µM |
| CCN(C(=O)c1cccc(S(=O)(=O)N(C)C)c1)C12CC3CC(CC(C3)C1)C2 | > 35.9 µM (inactive) |
| CN(CC(=O)Nc1ccc(Cl)c(C(F)(F)F)c1)C(=O)C1CC(=O)N(c2ccc3c(c2)OCCO3)C1 (centres undefined) | inactive |
| CC(C)Cn1c(N)c(C(=O)COC(=O)c2cc3ccccc3cc2O)c(=O)n(C)c1=O | > 35.9 µM (inactive) |

| Structure (SMILES) | IC50 |
| --- | --- |
| COc1ccc(Nc2ncnc3ccc(C)cc23)cc1 | 3.97 µM |
| CCc1c(C)nc2c(C)cccc2c1SCCC#N | > 35.9 µM (inactive) |
| O=C(O)CN1C(=O)/C(=C\c2ccccc2OCc2ccc(Cl)cc2Cl)SC1=S | inactive |
| COc1ccc(-c2ncncc2-c2ccccc2)c(O)c1 | inactive |
| O=C(O)c1ccccc1C(=O)Nc1ccc(Oc2cccc3ccccc23)cc1 | > 35.9 µM (inactive) |
| COc1cc(C(=O)N/N=C(\c2ccccc2)c2ccccn2)cc(OC)c1OC | > 11.9 µM (inactive) |
| Cc1nn(C(C)(C)C)c(C)c1/C=N/OC(=O)Nc1ccc(Cl)c(Cl)c1 | inactive |
| COc1cc(C(=O)NC(=S)NNC(=O)c2cnccn2)cc(OC)c1OC | inactive |
| Nc1ccc(-c2cc3ccccc3oc2=O)cc1 | 8.96 µM |
| CCC(C)(C)n1nnnc1CN1CCC(n2c(C)nc3cc(C(F)(F)F)ccc32)CC1 | > 35.9 µM (inactive) |
| COc1ccc(Oc2nc3c(c(=O)n(C)c(=O)n3C)n2C)cc1 | inactive |
| O=C(N/N=C/c1coc2ccc(Cl)cc2c1=O)c1ccc(O)cc1 | > 35.9 µM (inactive) |
| CNc1cccnc1C=NNC(N)=S | 3.45 µM |
| O=C(CCC1CCCC1)Nc1ccc(C(=O)NCc2cccnc2)cc1 | 3.87 µM |
| CC(C)(C)NC(=O)C1(C)CCC(=O)N1CCCn1ccnc1 (centres undefined) | inactive |
| O=[N+]([O-])c1ccc2c(c1)-c1ccccc1C2=NO | inactive |
| Cc1ccc(OCC(=O)c2cc(C)n(-c3ccccc3)c2C)c([N+](=O)[O-])n1 | inactive |
| Cc1cccn2c(=O)c3cc(C(=O)NCCN4CCOCC4)c(=N)n(Cc4cccnc4)c3nc12 | inactive |
| CCn1c2ccccc2c2cnc(N=CN(C)C)c(C#N)c21 | inactive |
| COC(CN(C(=O)CCl)C(C(=O)NC1CCCCC1)c1ccccc1C)OC (centres undefined) | 9.53 µM |
| O=C1c2cccc(OCc3ccc(F)cc3)c2CCN1Cc1ccccc1 | > 35.9 µM (inactive) |
| NC(=S)NN=Cc1nccc2c(N)cccc12 | inactive |
| CC(=O)NC(c1cc(Cl)c2cccnc2c1O)C1CC1 (centres undefined) | inactive |
| O=[N+]([O-])c1ccc(N(CCO)CCO)c2c1no[n+]2[O-] | inactive |
| Cc1cc(=O)[nH]c(Nc2cccc(Br)c2)n1 | inactive |
| CC(=O)C1=C(C)NC2=C(C(=O)CC(C)(C)C2)C1C (centres undefined) | inactive |
| O=[N+]([O-])c1cccc2c1ccc1ncccc12 | 9.46 µM |

| Structure (SMILES) | IC50 |
| --- | --- |
| COc1ccc(-n2cnc3c(sc4nccc(N(C)C)c43)c2=O)cc1 | inactive |
| CN(C)c1ccc(Nc2ncnc3ccc(Br)cc23)cc1 | 9.96 µM |
| O=C(N/N=C/c1ccc(O)cc1O)/C(=C/c1ccccc1)CCO | inactive |
| CCN(C(=O)c1cc(S(=O)(=O)N2CCCCC2)c[nH]1)c1ccc(OC)cc1 | inactive |
| CCOc1ccc(/C=C2\SC(=S)N(CCCC(=O)NCCCN3CCOCC3)C2=O)cc1 | > 12 µM (inactive) |
| COc1ccc2[nH]c(=O)c(CN(CCN3CCCC3)C(=O)Nc3ccccc3Cl)cc2c1 | > 35.8 µM (inactive) |
| CCOc1ccc(-c2noc(CCC(=O)O)n2)cc1 | > 35.9 µM (inactive) |
| Nc1ccc(Oc2ccccc2-c2ccccc2)cc1 | inactive |
| Nc1nc(CCl)nc(Nc2cccc3ccccc23)n1 | inactive |
| O=C(N/N=C(\c1ccccc1)c1ccccn1)c1ccccc1Cl | inactive |
| O=C(Nc1cccc(Cl)c1)Nc1nnc(-c2ccncc2)s1 | 8 µM |
| Cc1cc(/C=C2\Cc3ccccc3C2=O)c(C)n1-c1ccccc1 | > 35.9 µM (inactive) |
| Cc1ccc(/C=C2/SC(=S)N(CCCC(=O)Nc3ccc(O)cc3)C2=O)cc1 | > 35.9 µM (inactive) |
| COc1cc2c(cc1OC)C(C)N(C(=O)c1cccc([N+](=O)[O-])c1)CC2 (centres undefined) | inactive |
| COc1ccc2c(C#N)c3ccccn3c2c1 | inactive |
| Cc1ccc(O)c(Nc2ncnc3ccc([N+](=O)[O-])cc23)c1 | inactive |
| Nc1ccn([C@@H]2O[C@H](CO)[C@@H](O)C2O)c(=O)n1 (some centres undefined) | inactive |
| CCOC(=O)CSc1cc(-c2ccccc2)nc2ncnn12 | > 35.9 µM (inactive) |
| Cc1noc(/C=C/c2ccco2)c1S(=O)(=O)N1CCC(C(=O)Nc2ccc(Cl)cn2)CC1 | > 35.9 µM (inactive) |
| CCOC(=O)CC(=O)CSc1nccc(-c2cccnc2)n1 | inactive |
| CCOc1ccc(/C=C2\SC(=S)N(CCC(=O)O)C2=O)cc1 | > 35.9 µM (inactive) |
| Cc1cccc(C)c1-c1ccc(CN2C(CC(C)C)C(=O)N(Cc3cn(CC4CCCCC4)nn3)CCS2(=O)=O)cc1 (centres undefined) | inactive |
| COc1cc(/C=C2\CC(C(C)(C)C)C/C(=C\c3cc(OC)c(OC)c(OC)c3)C2=O)cc(OC)c1OC (centres undefined) | > 35.9 µM (inactive) |
| Cc1ccc(NC(=O)NC2CC(=O)N(c3ccc4c(c3)OCCO4)C2)cc1C (centres undefined) | 6 µM |
| Cc1c(C(=O)N/N=C/C(C)C)[nH]c2ccc([N+](=O)[O-])cc12 | inactive |
